Where two headings read alike, the source gives them in different places.
Tests used:
[1] = tested on: phospho-ERK in AGS cells; test: pERK In Cell Western (ICW) assay (Method B), AGS; assay type: cell-based; conditions: Homo sapiens, Table 2, 3 hours
Experimental: pERK ICW is a high throughput screening assay to evaluate the cellular potency of mutant KRAS small molecule inhibitors. KRAS mutant cell lines AGS, GP2D (KRAS-G12D) as well as SW620 (KRAS-G12V) were purchased from ATCC and maintained respectively in RPMI/DMEM/RPMI medium supplemented with 10% fetal bovine serum.
Cells grown in exponential phase were trypsinized, resuspended in fresh media, and viable cells were counted using a cell counter with Trypan Blue (BioRad TC20). Cells were seeded into 384-well plate (Greiner 781091) at density of 5,000 cells/well for AGS and 10,000 cells/well for GP2D/SW620 and allowed to grow overnight in a 37° C. CO2 incubator. The next day, compounds were dispensed into wells with a ½ log, 9-point serial dilution using a Tecan D300e dispenser and incubated for 3 hours in a 37° C. CO2 incubator. Cells were then fixed with paraformaldehyde (Electron Microscopy Sciences, 15710, 4% final concentration) for 30 min, permeabilized with wash buffer (1×PBS+0.1% Triton X-100) for 30 min and blocked with Odyssey blocking buffer (Li—COR 927-70001) for 1 hour, all at room temperature (RT). Phospho-ERK antibody (CST 4370L) was diluted 1:500 in Odyssey T20 (PBS) antibody diluent (Li—COR 927-75001) and incubated with cells overnight at 4° C. The next day, plates were washed 5× with wash buffer, incubated with IRDye 800 CW, Goat anti-Rabbit secondary antibody (Li—COR 926-32211, 1:800) and DRAQ5 (CST 4084L, 1:5,000) diluted in Odyssey T20 (PBS) antibody diluent for 1 hour, washed 5×, and imaged on an Odyssey CLx imaging system.
For data analysis, signal intensities from 800 (phosphor-ERK) and 700 (DRAQ5) channels were extracted, and phospho-ERK signals were normalized to DRAQ5 signals for each well and percent of blank control values were computed. Data were then imported into Graphpad Prism to compute half-maximal inhibitory concentrations (IC50) using a 4-parameter variable slope model. Z-factor for each plate was computed from signals derived from wells treated with either DMSO or 5 μM of control compound. AGS pERK ICW (Method B) IC50 (uM) values of selected compounds are depicted in Table 2 with compounds having a value ≥0.001 uM to 0.01 uM as ++++; ≥0.01 uM to 0.1 uM as +++; ≥0.1 uM to 1 uM as ++; ≥1 uM to 10 uM as + and ≥10 uM as NA.

[2] = molecular target: T1, KRAS G12D/RAF1 (Homo sapiens, UniProt P01116, G12D); test: Protein-protein interaction (PPI) HTRF assay KRAS G12D/RAF1; assay type: binding; conditions: Table 2
T1 construct: KRAS (1-169) proteins were expressed in BL21 (DE3)-CodonPlus E. coli; His6-MBP (N, cleaved yes)
Experimental: (§1) When RAS proteins are in the active GTP-bound conformation, they bind the effector protein RAF1 at the N-terminus Ras-binding domain (RBD, residues 52-131) (Tran, et al., 2021). Homogenous time resolved fluorescence (HTRF) was used to monitor the interaction between wt or mutant KRAS and RAF1 or wt NRAS and RAF1. Compounds were assayed in the presence of KRAS G12D/V and RAF1 versus wt KRAS to assess activity against mutant and w.t. KRAS. Similarly, compounds were then assayed in the presence of w.t. NRAS and RAF1 to assess RAS isoform selectivity. In all assay formats, His-tagged RAF1 protein was incubated with the HTRF donor, anti-6His Tb Cryptate gold (Cisbio 61DB10RDF), and biotinylated RAS proteins were incubated with the HTRF acceptor, streptavidin-d2 (CisBio 610SADLA). The intensity of the fluorescence signal emitted is proportional to binding between the two proteins. The donor solution was prepared by mixing 16 nM His-tagged RAF1 in protein dilution buffer with 1:100 anti-6His Tb cryptate in PPI-Terbium detection buffer. 16 nM biotinylated RAS protein was diluted into protein dilution buffer (50 mM Tris-HCl pH 7.5, 150 mM NaCl, 0.1 mM MgCl2, 1 mM TCEP, 0.005% Tween20) and mixed with 1:2000 Streptavidin-d2 diluted in PPI-Terbium detection buffer (CisBio 61DB10RDF). 50× compound in DMSO was mixed with 16 nM KRAS-acceptor solution and incubated for 30 minutes at room temperature. After compound pre-incubation with KRAS, the RAF1 donor solution was added to the KRAS-acceptor solution and incubated for 1 hour at room temperature. The fluorescence signal emitted was monitored at 665 nm and 615 nm using an Envision multimode plate reader. The HTRF ratio (665/615) was calculated and normalized to 0% inhibition in the absence of compound and 100% inhibition in the presence of untagged RAF1 protein. PPI KRAS G12D/RAF1, KRAS G12V/RAF1, w.t. KRAS/RAF1 and NRAS/RAF1 IC50 (uM) values of selected compounds are depicted in Table 3 and Table 4 with compounds having a value <0.1 uM as ++++; ≥0.1 uM to 1 uM as +++; ≥1 uM to 10 uM as ++; ≥10 uM to 100 uM as +; and ≥100 uM as NA.

[3] = molecular target: T2, NRAS/RAF1 (Homo sapiens, UniProt P01111); test: Protein-protein interaction (PPI) HTRF assay w.t. NRAS/RAF1; assay type: binding; conditions: Table 3; wt NRAS/RAF1
T2 construct: (1-169); His6-SUMO (N, cleaved yes)
Experimental: as §1

[4] = molecular target: GST-tagged KRAS-G12D (2-169) (Homo sapiens, UniProt P01116, G12D); test: Nucleotide exchange assay (NEA), SOS-mediated, HTRF, KRAS G12D; assay type: biochemical; conditions: IC50 extracted at 30 min, 20 nM SOScat
How it was run: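 SOS1cat-driven loading of fluorescent GTP-DY-647P1 (150 nM) onto GST-KRAS-G12D (2-169, 0.25 nM) read by time-resolved FRET; SOScat 20 nM, compound preincubated with KRAS 1 h at RT. Signal blanked to no-SOS reactions, normalized to DMSO; IC50 fitted from the 30-min read.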

[5] = molecular target: T3, KRAS G12V/RAF1 (Homo sapiens, UniProt P01116, G12V); test: Protein-protein interaction (PPI) HTRF assay KRAS G12V/RAF1; assay type: binding; conditions: Table 3
T3 construct: KRAS (1-169) proteins were expressed in BL21 (DE3)-CodonPlus E. coli; His6-MBP (N, cleaved yes)
Experimental: as §1

[6] = tested on: phospho-ERK in GP2D (KRAS-G12D) cells; test: pERK In Cell Western (ICW) assay (Method B), GP2D; assay type: cell-based; conditions: GP2d, 3 h, Table 4
How it was run: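 After overnight attachment, cells received nine half-log compound concentrations for 3 hours, were fixed, permeabilized and probed with phospho-ERK antibody plus DRAQ5. Normalized pERK signal versus blank control yields IC50 via variable-slope four-parameter fit.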

[7] = molecular target: T4, w.t. KRAS/RAF1 (Homo sapiens, UniProt P01116); test: Protein-protein interaction (PPI) HTRF assay w.t. KRAS/RAF1; assay type: binding; conditions: Table 3; wt KRAS/RAF1
T4 construct: KRAS (1-169) proteins were expressed in BL21 (DE3)-CodonPlus E. coli; His6-MBP (N, cleaved yes)
Experimental: as §1

[8] = molecular target: GST-tagged KRAS-G12V (2-169) (Homo sapiens, UniProt P01116, G12V); test: Nucleotide exchange assay (NEA), SOS-mediated, HTRF, KRAS G12V; assay type: biochemical; conditions: Table 4; IC50 extracted at 90 min; 80 nM SOS
How it was run: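 Exchange onto fluorescent GTP-DY-647P1 (150 nM final) catalysed by 80 nM SOS1cat was followed by Tb-anti-GST HTRF at RT for up to 90 min, after 1 h compound pre-incubation with 0.25 nM GST-tagged KRAS-G12V (2-169), pH 7.3. DMSO = 0%, no-SOS blank = 100%; 4-parameter IC50 taken at 90 min.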

[9] = Table 2, read-out: NEA-G12D (uM) IC50
[10] = Table 4, read-out: NEA G12D IC50

T3 sequence (P01116 with tags, fused parts or gaps isoform P01116-2 G12V): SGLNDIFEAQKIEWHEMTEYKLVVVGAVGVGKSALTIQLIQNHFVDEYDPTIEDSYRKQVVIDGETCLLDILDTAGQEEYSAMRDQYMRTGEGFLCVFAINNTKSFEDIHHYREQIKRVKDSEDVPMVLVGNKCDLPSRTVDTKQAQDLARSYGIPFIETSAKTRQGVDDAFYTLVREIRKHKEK
T1 sequence (P01116 with tags, fused parts or gaps isoform P01116-2 G12D): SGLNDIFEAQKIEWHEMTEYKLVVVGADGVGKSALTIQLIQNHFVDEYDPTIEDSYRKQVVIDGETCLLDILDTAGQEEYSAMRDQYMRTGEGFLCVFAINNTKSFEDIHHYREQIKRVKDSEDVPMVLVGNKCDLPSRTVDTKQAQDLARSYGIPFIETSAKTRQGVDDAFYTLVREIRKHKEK
Sequence of GST-tagged KRAS-G12V (2-169) (P01116 2-169 isoform P01116-2 G12V): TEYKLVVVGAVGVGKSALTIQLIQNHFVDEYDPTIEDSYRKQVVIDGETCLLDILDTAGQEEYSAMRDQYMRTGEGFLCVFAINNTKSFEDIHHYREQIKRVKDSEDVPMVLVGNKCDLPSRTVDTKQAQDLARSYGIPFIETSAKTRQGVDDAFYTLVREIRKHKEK
Sequence of GST-tagged KRAS-G12D (2-169) (P01116 2-169 isoform P01116-2 G12D): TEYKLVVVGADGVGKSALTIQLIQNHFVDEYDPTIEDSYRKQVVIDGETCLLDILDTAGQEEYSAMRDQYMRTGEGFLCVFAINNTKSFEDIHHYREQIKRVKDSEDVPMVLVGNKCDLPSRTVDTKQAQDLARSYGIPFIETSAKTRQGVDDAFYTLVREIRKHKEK
T4 sequence (P01116 with tags, fused parts or gaps isoform P01116-2): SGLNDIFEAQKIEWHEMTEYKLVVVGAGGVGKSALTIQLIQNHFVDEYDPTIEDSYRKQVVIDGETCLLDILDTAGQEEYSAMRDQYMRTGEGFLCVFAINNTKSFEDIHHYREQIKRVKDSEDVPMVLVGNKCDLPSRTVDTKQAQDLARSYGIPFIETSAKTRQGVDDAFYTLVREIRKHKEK
T2 sequence (P01111 with tags, fused parts or gaps): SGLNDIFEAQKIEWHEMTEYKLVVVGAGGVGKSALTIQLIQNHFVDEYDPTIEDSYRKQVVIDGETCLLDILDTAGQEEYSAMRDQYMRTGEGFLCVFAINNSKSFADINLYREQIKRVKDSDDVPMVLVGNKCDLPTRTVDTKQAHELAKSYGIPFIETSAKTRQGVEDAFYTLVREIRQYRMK

| SMILES | IC50 [1] | IC50 [2] | IC50 [3] | IC50 [4, 9] | IC50 [5] | IC50 [6] | IC50 [7] | IC50 [8] | IC50 [4, 10] |
| --- | --- | --- | --- | --- | --- | --- | --- | --- | --- |
| N#Cc1c(N)sc(Cl)c1C1CCN(c2nc(OCC3(CN4CCOCC4)CC3)nc(N3C[C@H]4CC[C@@H](C3)N4)n2)C1 (stereo partly drawn) [Compound 4, 2-amino-5-chloro-4-[1-[4-[[1-(morpholinomethyl)cyclopropyl]methoxy]-6-[(1R,5S)-3,8-diazabicyclo[3.2.1]octan-3-yl]-1,3,5-triazin-2-yl]pyrrolidin-3-yl]thiophene-3-carbonitrile] | 1 to 10 µM | 1 to 10 µM | > 100 µM | < 0.01 µM | – | – | – | – | – |
| CN(C)C(=O)c1nn2c(c1Cl)CN(c1nc(OC[C@@]34CCCN3C[C@H](F)C4)nc(N3CC4(CCc5sc(N)c(C#N)c54)C3)n1)CCC2 [Compound 5, 5-[4-(2-amino-3-cyano-spiro[5,6-dihydrocyclopenta[b]thiophene-4,3′-azetidine]-1′-yl)-6-[[(2R,8S)-2-fluoro-1,2,3,5,6,7-hexahydropyrrolizin-8-yl]methoxy]-1,3,5-triazin-2-yl]-3-chloro-N,N-dimethyl-4,6,7,8-tetrahydropyrazolo[1,5-a][1,4]diazepine-2-carboxamide] | 0.1 to 1 µM | 10 to 100 µM | > 100 µM | < 0.01 µM | – | – | – | – | – |
| CC1(CO)CCCN(c2nc(OC[C@@]34CCCN3C[C@H](F)C4)nc(N3CC4(CCc5sc(N)c(C#N)c54)C3)n2)C1 (stereo partly drawn) [Compound 18, 2-amino-1′-[4-[[(2R)-2-fluoro-1,2,3,5,6,7-hexahydropyrrolizin-8-yl]methoxy]-6-[3-(hydroxymethyl)-3-methyl-1-piperidyl]-1,3,5-triazin-2-yl]spiro[5,6-dihydrocyclopenta[b]thiophene-4,3′-azetidine]-3-carbonitrile] | 1 to 10 µM | 1 to 10 µM | – | 0.01 to 0.1 µM | 1 to 10 µM | 1000 to 20000 nM | 1 to 10 µM | 10 to 100 nM | 0.01 to 0.1 µM |
| CC1(C#N)CCCN(c2nc(OC[C@@]34CCCN3C[C@H](F)C4)nc(N3CC4(CCc5sc(N)c(C#N)c54)C3)n2)C1 (stereo partly drawn) [Compound 19, 2-amino-1′-[4-(3-cyano-3-methyl-1-piperidyl)-6-[[(2R,8S)-2-fluoro-1,2,3,5,6,7-hexahydropyrrolizin-8-yl]methoxy]-1,3,5-triazin-2-yl]spiro[5,6-dihydrocyclopenta[b]thiophene-4,3′-azetidine]-3-carbonitrile] | 0.1 to 1 µM | 1 to 10 µM | – | 0.01 to 0.1 µM | 1 to 10 µM | 100 to 1000 nM | 1 to 10 µM | 10 to 100 nM | 0.01 to 0.1 µM |
| C[C@]1(O)CN(c2nc(OC[C@@]34CCCN3C[C@H](F)C4)nc(N3CC4(CCc5sc(N)c(C#N)c54)C3)n2)CC[C@H]1O [Compound 21, 2-amino-1′-[4-[(3S,4R)-3,4-dihydroxy-3-methyl-1-piperidyl]-6-[[(2R,8S)-2-fluoro-1,2,3,5,6,7-hexahydropyrrolizin-8-yl]methoxy]-1,3,5-triazin-2-yl]spiro[5,6-dihydrocyclopenta[b]thiophene-4,3′-azetidine]-3-carbonitrile] | 0.1 to 1 µM | 0.1 to 1 µM | – | 0.01 to 0.1 µM | 1 to 10 µM | 100 to 1000 nM | 0.1 to 1 µM | 10 to 100 nM | 0.01 to 0.1 µM |
